Source: US12115218B2 (priority 2018, dated 2024)
Where a name gives a salt, the structure may show the parent alone.

System: Inactivated porcine circovirus type 2 vaccine (SH strain) antigen
Set-up: species or system mice
Settings: mouse, in vivo

Molecule | Antibody titers in mice
c1ccc([C@H]2CN3CCSC3=N2)cc1 [levamisole aqueous solution, levamisole hydrochloride] | no adjuvant synergistic effect was produced
polyinosinic acid-polycytidylic acid | no adjuvant synergistic effect was produced
